Data on 6 compounds can be found in patent publication US9320272B2, “Microbial composition” (Rohm and Haas Company, priority 2011, dated 2016).

In assay [1] the test system is Escherichia coli (E. coli - ATCC #10536). Briefly: Synergy test: high resolution MBC microtiter plate assay in phosphate buffer containing 35% dipropylene glycol, 15 seconds contact. The class given is cell-based. Conditions: for QA: concentration of first component (A) acting alone which produced an end point (MBC of Compound A); Qa with Qb = 0 / QB: concentration of second component (B) acting alone which produced an end point (MBC of Compound B); Qb with Qa = 0: E. coli 10536, complete kill in 15 seconds, phosphate buffer with 35% DPG; for SI (Synergy Index = Qa/QA + Qb/QB): E. coli 10536, less than one = synergy, one = additivity, greater than one = antagonism. The text has this:
One measure of synergy is the industrially accepted method described by Kull, F. C.; Eisman, P. C.; Sylwestrowicz, M. D, and Mayer, R. L., in Applied Microbiology 9:538-541 (1961), using the ratio determined by the formula: Qa/QA+Qb/QB=Synergy Index (“SI”) wherein; QA=concentration of compound A (first component) in percent, acting alone, which produced an end point (MBC of Compound A), Qa=concentration of compound A in percent, in the mixture, which produced an end point. QB=concentration of compound B (second component) in percent, acting alone, which produced an end point (MBC of Compound B). Qb=concentration of compound B in percent, in the mixture, which produced an end point.
When the sum of Qa/QA and Qb/QB is greater than one, antagonism is indicated. […] The lower the SI, the greater is the synergy shown by that particular mixture. The minimum biocidal concentration (MBC) of a microbicide is the lowest concentration tested under a specific set of conditions that provides complete kill of the tested microorganisms.
Synergy tests were conducted using standard microliter plate assays with phosphate buffer containing 35% dipropylene glycol (DPG). In this method, a wide range of combinations of chemicals was tested by conducting high resolution. MBC assays of Component (A) in the presence of various concentrations of Component (B). High resolution MBCs were determined by adding varying amounts of microbicide to one column of a microliter plate and doing subsequent […] dilutions using an automated liquid handling system to obtain a series of closely spaced endpoints. The MBC plate was inoculated one column at a time with the test microorganism. An aliquot of the inoculated well was transferred at 15 seconds to a plate containing a neutralizing agent (EVE Neutralizing Broth), mixed and held for 5 minutes before being transferred to a growth plate containing trypticase soy broth (TSB). The TSB plate was incubated at 37° C. and read for the presence/absence of growth at 24 hours. The lowest level tested that provided complete kill (as evidenced by no growth in the microtitre plate) of the test organisms in 15 seconds is the minimum biocidal concentration (MBC).
The synergy of the combinations of the present invention was determined against a bacterium, Escherichia coli (E. coli—ATCC #10536), at a concentration of approximately 1×10^8 bacteria per mL. This microorganism is representative of natural contaminants in many consumer and industrial applications.

Assay [2] shares this test system. Description: Automated assessment of efficacy in surfactant base (2.85% sodium cocoyl glycinate + 1.85% sodium lauroamphoacetate, pH 10), 15 seconds exposure. In kind it is cell-based. Conditions: for MBC (% w/v): in 2.85% sodium cocoyl glycinate + 1.85% sodium lauroamphoacetate solution at pH 10, E. coli, 15 seconds exposure; for No. of replicates showing growth (out of 4) / Δ OD 450 nm = OD450 (time zero) − OD450 (time = 16 hours), Mean / Δ OD 590 nm OD590 (time = 16 hours) − OD590 (time zero), Mean: model surfactant solution pH 10, 15 s exposure; for Δ OD 450 nm = OD450 (time zero) − OD450 (time = 16 hours), Mean / Δ OD 590 nm OD590 (time = 16 hours) − OD590 (time zero), Mean: 4 replicates. The procedure:
In these examples, the efficacy of combinations of actives were tested in a surfactant cleansing formulation comprising 2.85% sodium cocoyl glycinate and 1.85% sodium lauroamphoacetate.
This corresponds to a 50% in use dilution with water of a neat formulation containing 5.7% cocoyl glycinate and 3.7% sodium lauroamphoacetate during hand washing.
Solutions were prepared such that the concentrations of the surfactant components and test actives were 1.1× the final desired concentration in order to allow for dilution with the bacterial inoculum in the test. The solutions were manually adjusted to pH 10.0 by dropwise addition of sodium hydroxide solution, as measured with a pH meter at ambient temperature.
The efficacy of the combinations of the present invention was determined against Escherichia coli (E. coli—ATCC #10536), at a concentration of approximately 1×10^8 bacteria per mL.
Tests were conducted using standard microliter plate assays using an automated liquid handling system. 270 μl of the surfactant test solution was pipetted into each well of the microtitre plate and 30 μl of the bacterial suspension was then added. After exactly 15 seconds of bacterial exposure, a 30 μl volume of bacterial cells was withdrawn and transferred to 270 μl of D/E quench solution. After 5 minutes in the D/E quench, the optical density (OD) was measured for each plate in turn at two specific wavelengths (450 nm and 590 nm). These provide a dual check of antimicrobial activity, as the OD450 reading is specific for the yellow colour of D/E quench when bacterial growth is observed, whereas OD590 is specific for the initial purple colour of the D/E quench which is retained if no bacterial growth is observed. After the time zero OD measurements, plates were then incubated at 37° C. overnight (16 hours) before repeating the OD measurements. Delta CD values were calculated by subtracting […] the initial value at time zero. Bacterial growth is observed as an increase in OD450 and a decrease in ΔOD590. To identify antibacterially efficacious systems (those preventing appreciable bacterial growth after incubation), the following threshold changes in OD readings have been adopted: if (1), OD450 increases by less than 0.2 absorbance unit on incubation and (2), OD590 decreases by less than 0.35 unit on incubation. Conversely, where OD450 increases by more than 0.2 AU and OD590 decreases by more than 0.35 unit after incubation, corresponding to a colour shift from purple to yellow, the test system allows bacterial growth and is not deemed efficacious. Four replicate measurements in the same plate have been made for each test system. The number of replicate wells showing either bacterial growth or no growth is also readily assessed by eye by following the colour change.
Dose responses for individual components and binary mixtures of actives at a fixed concentration ratio were generated by sequential dilution of liquors with further surfactant solution to obtain a series of endpoints.
In some selected cases, the combinations were also tested at the weight ratio 1.1.

Several values for one entry are separate records, joined by “and”; a condition that tells them apart may be missing. Identical values can stand only once. Some results are limits rather than exact numbers.

As to `Oc1ccccc1Cc1ccccc1` [2-hydroxydiphenylmethane], in assay [1], the “QA: concentration of first component (A) acting alone which produced an end point (MBC of Compound A); Qa with Qb = 0” value (from here on “QA: concentration of first component”) was 0.8 weight % and 1.0 weight % and 0.6 weight %; the “SI (Synergy Index = Qa/QA + Qb/QB)” value is 1.00. Further, the “MBC (% w/v)” value in assay [2] is listed as over 0.2 % w/v. Besides, in assay [2] (single active at 0.1% w/v), the “No. of replicates showing growth (out of 4)” value was found to be 4; the “Δ OD 450 nm = OD450 (time zero) − OD450 (time = 16 hours), Mean” value (“Δ OD 450 nm = OD450 (time zero) − OD450” for short) is recorded as −0.51; the “Δ OD 590 nm OD590 (time = 16 hours) − OD590 (time zero), Mean” value (“Δ OD 590 nm OD590” for short) is 0.62. Besides, in assay [2] (single active at 0.2% w/v), the “No. of replicates showing growth (out of 4)” value was 4; the “Δ OD 450 nm = OD450 (time zero) − OD450” value was −0.51; the “Δ OD 590 nm OD590” value stood at 0.63. In assay [2] (single active at […] w/v), the “No. of replicates showing growth (out of 4)” value was determined as 4; the “Δ OD 450 nm = OD450 (time zero) − OD450” value is on record as −0.49; the “Δ OD 590 nm OD590” value turned out to be 0.64.

Regarding `Oc1ccc(Cc2ccccc2)cc1` [4-hydroxydiphenylmethane], in assay [1], the “QA: concentration of first component” value is 0.6 weight % and 0.5 weight %; the “SI (Synergy Index = Qa/QA + Qb/QB)” value is 1.00. Further, in assay [2], the “MBC (% w/v)” value is listed as over 0.2 % w/v. In addition, in assay [2] (single active at 0.1% w/v), the “No. of replicates showing growth (out of 4)” value is listed as 4; the “Δ OD 450 nm = OD450 (time zero) − OD450” value is −0.58; the “Δ OD 590 nm OD590” value came out at 0.52. Besides, in assay [2] (single active at 0.2% w/v), the “No. of replicates showing growth (out of 4)” value amounted to 4; the “Δ OD 450 nm = OD450 (time zero) − OD450” value was −0.52; the “Δ OD 590 nm OD590” value turned out to be 0.61. Moreover, in assay [2] (single active at […] w/v), the “No. of replicates showing growth (out of 4)” value stood at 4; the “Δ OD 450 nm = OD450 (time zero) − OD450” value is reported as −0.55; the “Δ OD 590 nm OD590” value amounted to 0.54.

On to `Oc1ccc(C2CCCC2)cc1` [4-cyclopentylphenol], for which, in assay [1], the “QA: concentration of first component” value stood at 0.2 weight % and the “SI (Synergy Index = Qa/QA + Qb/QB)” value is recorded as 1.00. In assay [2], the “MBC (% w/v)” value is over 0.2 % w/v.

Consider `CC(C)=CCC/C(C)=C/CO` [(E)-3,7-dimethylocta-2,6-dien-1-ol], for which the “QB: concentration of second component (B) acting alone which produced an end point (MBC of Compound B); Qb with Qa = 0” value in assay [1] is 0.3 weight % and 0.2 weight %. The “MBC (% w/v)” value in assay [2] is recorded as over 0.5 % w/v. Also, in assay [2] (single active at 0.3% w/v), the “No. of replicates showing growth (out of 4)” value turned out to be 4; the “Δ OD 450 nm = OD450 (time zero) − OD450” value is reported as −0.51; the “Δ OD 590 nm OD590” value is listed as 0.59. In assay [2] (single active at 0.5% w/v), the “No. of replicates showing growth (out of 4)” value was found to be 4; the “Δ OD 450 nm = OD450 (time zero) − OD450” value is on record as −0.45; the “Δ OD 590 nm OD590” value is on record as 0.62. Moreover, the “No. of replicates showing growth (out of 4)” value in assay [2] (single active at […] w/v) worked out at 4.

For the compound `Oc1ccccc1C1CCCC1` [2-cyclopentylphenol], in assay [1], the “QA: concentration of first component” value was 0.2 weight % and 0.6 weight % and 0.3 weight %; the “SI (Synergy Index = Qa/QA + Qb/QB)” value is recorded as 1.00. For the same compound, in assay [2], the “MBC (% w/v)” value is reported as over 0.2 % w/v.

With `C=CC(C)(O)CCC=C(C)C` (racemic) [3,7-dimethylocta-1,6-dien-3-ol], in assay [1], the “QB: concentration of second component (B) acting alone which produced an end point (MBC of Compound B); Qb with Qa = 0” value is 0.5 weight % and the “SI (Synergy Index = Qa/QA + Qb/QB)” value is 1.0. In addition, the “MBC (% w/v)” value in assay [2] is given as over 0.5 % w/v. Further, in assay [2] (single active at 0.2% w/v), the “Δ OD 450 nm = OD450 (time zero) − OD450” value is on record as −0.53 and the “Δ OD 590 nm OD590” value was determined as 0.60. In assay [2] (single active at 0.5% w/v), the “Δ OD 450 nm = OD450 (time zero) − OD450” value is given as −0.30 and the “Δ OD 590 nm OD590” value was 0.50.
